Common to all, as to type: cell-based
Assay [1] addresses carboxylic acid reductase (CAR) (Nocardia iowensis, UniProt Q6RKB1). As to the kind of experiment: whole-cell aldehyde formation. To be noted: E. coli RARE cells co-expressing SFP; MMV medium, 5 mM, 24 °C.
In assay [2] the target is T1, 5-Hydroxymethylfurfural (HMF) oxidase (HMFO) (Methylovorus sp. MP688, UniProt E4QP00).
T1 construct: gene MPQ_0130; flavoprotein, pBAD vector, expressed in E. coli K-12 MG1655 (RARE); no mutations told
T1 sequence (E4QP00 1-531): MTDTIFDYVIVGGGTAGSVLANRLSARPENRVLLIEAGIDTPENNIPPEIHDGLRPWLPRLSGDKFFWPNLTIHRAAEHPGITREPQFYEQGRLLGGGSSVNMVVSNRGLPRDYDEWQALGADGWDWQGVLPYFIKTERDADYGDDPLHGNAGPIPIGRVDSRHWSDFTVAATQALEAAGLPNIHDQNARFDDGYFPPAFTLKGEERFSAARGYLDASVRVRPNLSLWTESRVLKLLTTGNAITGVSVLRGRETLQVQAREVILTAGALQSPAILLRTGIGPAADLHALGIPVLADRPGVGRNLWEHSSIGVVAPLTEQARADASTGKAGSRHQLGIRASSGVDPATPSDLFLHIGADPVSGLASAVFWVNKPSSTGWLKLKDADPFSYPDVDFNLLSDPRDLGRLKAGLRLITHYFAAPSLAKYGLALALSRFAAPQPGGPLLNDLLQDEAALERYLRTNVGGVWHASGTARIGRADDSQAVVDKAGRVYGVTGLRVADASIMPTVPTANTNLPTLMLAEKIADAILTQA
Put plainly: whole-cell alcohol oxidation. As to conditions: O2 as oxidant; E. coli RARE cells, 5 mM, 2 h.

Assay [3] concerns the target T2, feruloyl CoA synthase (FCS, Atfcs) (Amycolatopsis thermoflava, UniProt Z9FW54HPU9).
T2 construct: pETDuet-1, co-expressed with enoyl-CoA hydratase/aldolase Atech of the same strain in E. coli K-12 MG1655 (RARE)
As to the kind of experiment: whole-cell aldehyde formation. As to conditions: E. coli RARE cells co-expressing ECH hydratase/aldolase, which completes the conversion to aldehyde; MMV medium, 5 mM, 24 °C.

Chain of carboxylic acid reductase (CAR) (Q6RKB1 2-1174): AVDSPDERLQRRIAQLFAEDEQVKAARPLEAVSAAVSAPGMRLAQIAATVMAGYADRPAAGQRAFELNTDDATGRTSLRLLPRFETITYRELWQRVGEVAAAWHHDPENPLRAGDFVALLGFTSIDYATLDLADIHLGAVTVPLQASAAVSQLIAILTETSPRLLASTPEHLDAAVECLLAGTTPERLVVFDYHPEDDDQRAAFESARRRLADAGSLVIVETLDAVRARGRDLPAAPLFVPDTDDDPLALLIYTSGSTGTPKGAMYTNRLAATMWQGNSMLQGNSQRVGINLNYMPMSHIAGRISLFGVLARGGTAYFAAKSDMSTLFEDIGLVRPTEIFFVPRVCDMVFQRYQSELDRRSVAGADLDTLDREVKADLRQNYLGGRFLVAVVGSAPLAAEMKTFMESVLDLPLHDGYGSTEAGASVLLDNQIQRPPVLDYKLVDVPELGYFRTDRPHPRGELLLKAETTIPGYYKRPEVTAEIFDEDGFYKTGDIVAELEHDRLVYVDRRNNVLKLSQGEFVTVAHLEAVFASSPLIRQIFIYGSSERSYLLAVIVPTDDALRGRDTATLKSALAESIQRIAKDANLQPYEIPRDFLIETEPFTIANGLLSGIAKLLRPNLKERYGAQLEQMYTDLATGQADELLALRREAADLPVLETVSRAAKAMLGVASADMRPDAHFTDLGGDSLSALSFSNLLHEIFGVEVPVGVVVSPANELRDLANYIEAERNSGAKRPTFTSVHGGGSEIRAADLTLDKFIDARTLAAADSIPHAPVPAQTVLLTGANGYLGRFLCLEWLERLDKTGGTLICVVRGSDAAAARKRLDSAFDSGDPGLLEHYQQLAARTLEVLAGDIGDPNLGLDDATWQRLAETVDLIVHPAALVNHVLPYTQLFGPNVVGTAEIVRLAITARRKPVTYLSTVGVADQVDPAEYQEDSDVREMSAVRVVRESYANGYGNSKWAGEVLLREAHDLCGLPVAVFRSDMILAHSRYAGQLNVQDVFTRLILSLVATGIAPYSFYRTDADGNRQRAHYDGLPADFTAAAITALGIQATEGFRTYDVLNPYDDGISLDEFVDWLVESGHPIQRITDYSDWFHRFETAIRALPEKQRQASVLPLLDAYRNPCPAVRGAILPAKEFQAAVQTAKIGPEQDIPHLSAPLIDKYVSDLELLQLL

For the compound `O=C(O)c1ccc(O)cc1` [4 a, p-hydroxybenzoic acid], the whole-cell aldehyde formation result in assay [1] was “CAR‐SFP/E. coli RARE, from p‐hydroxybenzoic acid, produced a good yield of p‐hydroxybenzaldehyde”. In the case of `O=C(O)c1ccccc1` [4 b, benzoic acid], the whole-cell aldehyde formation result in assay [1] was “reduction of benzoic acid to benzaldehyde catalysed by CAR‐SFP/E. coli RARE”. As for `OCc1ccc(O)cc1` [6 a, p-hydroxybenzyl alcohol], in assay [2], the whole-cell alcohol oxidation entry is “whole cell HMFO catalysed oxidation of benzyl alcohol and p‐hydroxybenzyl alcohol”. The same measure, in the same setting: in the case of `OCc1ccccc1` [6 b, benzyl alcohol] it was “whole cell HMFO catalysed oxidation of benzyl alcohol and p‐hydroxybenzyl alcohol”. On to `O=C(O)/C=C/c1ccc(O)cc1` [compound 5, p-coumaric acid], for which the whole-cell aldehyde formation entry in assay [3] is reported as “FCS‐ECH/E. coli RARE, starting from p‐coumaric acid”.
